Article PMC11288129, “Diversely evolved xibalbin variants from remipede venom inhibit potassium channels and activate PKA-II and Erk1/2 signaling” (BMC Biology, 2024)
Marks after values point to notes of the source that are not given here. Positions of bridges follow the written chain, without caps; N, C: chain ends. No end group written: not given here.

Legend:
mNav1.6 = assay: TEVC current-voltage relationship (Vhalf), Nav1.6; type: cell-based, mouse; set-up: Vhalf, toxin inactivation, Nav1.6 / Vhalf, toxin activation, Nav1.6: unit not given here; settings: for Vhalf activation shift, Nav1.6: 1 µM versus control (ND96); for Vhalf, toxin activation, Nav1.6 / Vhalf, toxin inactivation, Nav1.6: 1 µM
Excerpt: (§1) For the expression of Kv channels rat Kv1.1 (GenBank accession number: NM_173095 [88, 89]), rKv1.2 (NM_012970 [90, 91]), human Kv1.3 (NM_002232 [92, 93]), rKv1.4 (NM_012971 [94, 95]), rKv1.6 (NM_023954 [96, 97]), hKv2.1 (NM_004975 [98, 99]), hKv3.1 (NM_004976 [100, 101]), rKv4.2 (NM_031739 [102, 103]), hKv10.1 (NM_172362 [104, 105]), hERG1 [Kv11.1, (NM_000238 [106, 107])], and Shaker IR [from Drosophila melanogaster, (NM_167595 [108, 109])], Nav channels [rNav1.2 (NM_012647 [42, 110]), rNav1.4 (NM_013178 [111, 112]), hNav1.5 (NM_198056 [113, 114]), mNav1.6 (NM_001077499 [115, 116]), BgNav [from Blattella germanica, (DQ466887 [117, 118])] and the auxiliary subunits rβ1 (NM_001271045 [119, 120]), hβ1 (NM_001037 [121, 122]), and TipE [from D. melanogaster, (NM_079196 [109, 123])], and Cav channels hCav3.1 [124, 125], hCav3.2 [126, 127], and hCav3.3 [128, 129] in Xenopus oocytes, the linearized plasmids were transcribed using the T7 or SP6 mMESSAGEmMACHINE transcription kit (Ambion, Austin, TX, USA). Mature female animals were purchased from Nasco (Fort Atkinson, USA) and were housed in the Aquatic Facility (KU Leuven) in compliance with the regulations of the European Union (EU) concerning the welfare of laboratory animals as declared in Directive 2010/63/EU. The use of X. laevis oocytes was approved by the Animal Ethics Committee of the KU Leuven with the license number P186/2019. Stage V–VI oocytes were collected from anesthetized female X. laevis frog as previously described, with the frogs anesthetized by placement in 0.1% tricaine solution (amino benzoic acid ethyl ester; Merck, USA). Oocyte microinjection was performed using a microinjector (Drummond Scientifc®, USA), with a programmed cRNA injection volume of 4—50 nL, depending on the channel subtype. The oocytes were incubated in ND96 solution (96 mM NaCl, 2 mM KCl, 1.8 mM CaCl2, 2 mM MgCl2, and 5 mM HEPES, pH 7.4), supplemented with 50 mg/l gentamicin sulfate.
(§2) Electrophysiological measurements were performed at room temperature (18–22 °C) using the two-electrode voltage clamp (TEVC) technique. Data were obtained using a GeneClamp 500 amplifier (Axon Instruments, USA), and Clampex9 software (Axon Instruments), responsible for data acquisition and storage. Glass micropipettes were produced using glass capillaries (borosilicate WPI 1B120-6) and drawn in a WPI (World Precision Instruments, USA) manual stretcher. The bath and perfusion solutions were either the previously described ND96 (Nav and Kv channels) or calcium-free ND96 supplemented with 10 mM BaCl2 (Cav channels).
(§3) Whole-cell currents of oocytes were recorded 1 to 3 days after injection. Current and voltage electrodes were filled with 3 M KCl and their resistance was adjusted from 0.7 to 2.0 MΩ. Currents were sampled at 20 kHz (Nav channels) and 10 kHz (Kv and Cav channels) and filtered using a four-pole Bessel low-pass Bessel filter, at 1 kHz for sodium, and […] for potassium and calcium, except for the hERG ion channel, in which the currents were filtered at 1 kHz. Leak subtraction was performed using a -P/4 protocol. Kv1.x currents were evoked by 500 ms depolarizations to 0 mV followed by a 500-ms pulse to − 50 mV, from a holding potential of − 90 mV. Kv2.1, Kv3.1, and Kv4.2 currents were elicited by 500 ms pulses to + 20 mV from a holding potential of − 90 mV. Current traces of Kv10.1 were elicited by 2 s depolarization to 0 mV, from a holding potential of − 90 mV. Current traces of hERG1 channel were elicited by applying a + 40 mV prepulse for 2 s followed by a step of − 120 mV for 2 s. Sodium current traces were evoked by a 100 ms depolarization to 0 mV, from a holding potential of − 90 mV. The current–voltage (IV) relationships were determined by 100-ms step depolarizations between − 90 and + 40 mV, using 5 mV increments. […]

BgNav = assay: TEVC current-voltage relationship (Vhalf), BgNav; type: cell-based, Blattella germanica; set-up: Vhalf, toxin inactivation, BgNav / Vhalf, toxin activation, BgNav: unit not given here; settings: for Vhalf, toxin activation, BgNav / Vhalf, toxin inactivation, BgNav: 1 µM
Excerpt: as §1, §2, §3

Shaker IR = assay: TEVC inhibition, Shaker IR; type: cell-based, Drosophila melanogaster; set-up: unit not given here; settings: 1 µM
Excerpt: as §1, §2, §3

rNav1.4 = assay: TEVC inhibition, Nav1.4; type: cell-based, rat; settings: 1 µM, Xenopus oocytes, ND96, 18–22 °C, mean ± SEM, n ≥ 3
Excerpt: For the expression of Kv channels rat Kv1.1 (GenBank accession number: NM_173095 [88, 89]), rKv1.2 (NM_012970 [90, 91]), human Kv1.3 (NM_002232 [92, 93]), rKv1.4 (NM_012971 [94, 95]), rKv1.6 (NM_023954 [96, 97]), hKv2.1 (NM_004975 [98, 99]), hKv3.1 (NM_004976 [100, 101]), rKv4.2 (NM_031739 [102, 103]), hKv10.1 (NM_172362 [104, 105]), hERG1 [Kv11.1, (NM_000238 [106, 107])], and Shaker IR [from Drosophila melanogaster, (NM_167595 [108, 109])], Nav channels [rNav1.2 (NM_012647 [42, 110]), rNav1.4 (NM_013178 [111, 112]), hNav1.5 (NM_198056 [113, 114]), mNav1.6 (NM_001077499 [115, 116]), BgNav [from Blattella germanica, (DQ466887 [117, 118])] and the auxiliary subunits rβ1 (NM_001271045 [119, 120]), hβ1 (NM_001037 [121, 122]), and TipE [from D. melanogaster, (NM_079196 [109, 123])], and Cav channels hCav3.1 [124, 125], hCav3.2 [126, 127], and hCav3.3 [128, 129] in Xenopus oocytes, the linearized plasmids were transcribed using the T7 or SP6 mMESSAGEmMACHINE transcription kit (Ambion, Austin, TX, USA). […]
Whole-cell currents of oocytes were recorded 1 to 3 days after injection. […] The current–voltage (IV) relationships were determined by 100-ms step depolarizations between − 90 and + 40 mV, using 5 mV increments. […]

Row | Sequence | Vhalf activation shift, Nav1.6 (mNav1.6) | Vhalf, toxin activation, Nav1.6 (mNav1.6; replicate 1) | Vhalf, toxin inactivation, Nav1.6 (mNav1.6; replicate 1) | Vhalf, toxin activation, Nav1.6 (mNav1.6; replicate 2) | Vhalf, toxin inactivation, Nav1.6 (mNav1.6; replicate 2) | Vhalf, toxin activation, Nav1.6 (mNav1.6; replicate 3) | Vhalf, toxin inactivation, Nav1.6 (mNav1.6; replicate 3) | Vhalf, toxin activation, Nav1.6 (mNav1.6; replicate 4) | Vhalf, toxin inactivation, Nav1.6 (mNav1.6; replicate 4) | Vhalf activation shift, BgNav (BgNav; 1 µM versus control (ND96)) | Vhalf, toxin activation, BgNav (BgNav; replicate 1) | Vhalf, toxin inactivation, BgNav (BgNav; replicate 1) | Vhalf, toxin activation, BgNav (BgNav; replicate 2) | Vhalf, toxin inactivation, BgNav (BgNav; replicate 2) | Vhalf, toxin activation, BgNav (BgNav; replicate 3) | Vhalf, toxin inactivation, BgNav (BgNav; replicate 3) | Vhalf, toxin activation, BgNav (BgNav; replicate 4) | Inhibition data, Shaker (Shaker IR; replicate 1) | Inhibition data, Shaker (Shaker IR; replicate 2) | Inhibition data, Shaker (Shaker IR; replicate 3) | also measured
1 | KRSCIRRFGRCDHRPNDCCYNSSCRCNLWGSNCRCQRMGLFQKWGK (disulfide 4-19, 11-24, 18-35, 26-33) [xib13] | 0.5 mV | -22.599 | -56.1011 | -28.3204 | -61.4261 | -27.6893 | -56.3883 | -20.1785 | -49.5801 | 7.7*** mV | -17.0858 | -50.0173 | -22.9798 | -54.2542 | -20.8319 | -48.9373 | -18.4734 | 0.0 | 0.0 | 0.0 | Vhalf inactivation shift, BgNav (BgNav; 1 µM versus control (ND96)): 0.2 mV; Vhalf, toxin inactivation, BgNav (BgNav; replicate 4): -48.3513; Inhibition data, Shaker (Shaker IR; replicate 4): 0.0; inhibition of Nav1.4 (rNav1.4): 33.0 ± 2.4%
2 | RLFCIRHHKYCGHRPKRCCSGLFCRCNTFGTNCRCQSKGALGKLI (disulfide 4-19, 11-24, 18-35, 26-33) [xib1] | 1.9 mV | -19.6324 | -54.1984 | -25.3795 | -54.8159 | -25.7195 | -56.7966 | -23.7149 | -53.558 | 2.1 mV | -20.8516 | -45.0763 | -24.1418 | -46.3574 | -27.3818 | -51.0148 | -26.78 | 0.0 | 0.0 | 0.0 | Inhibition data, Shaker (Shaker IR; replicate 4): 0.0; inhibition of Nav1.4 (rNav1.4): 21.8 ± 3.3%
